Data published in US8153160B2 (Bayer Pharma Aktiengesellschaft, priority 2005, dated 2012).
One block for each compound: values may come before it.

Assays:
[1] = In vitro release, USP release method with apparatus 2 (paddle); format: physicochemical; settings: 100 rpm, 900 ml phosphate buffer pH 6.8 + 1.0% sodium lauryl sulfate, JP sinker
Method: The in vitro release investigations described below were carried out by the USP release method with apparatus 2 (paddle). […] Also added to the buffer solution to set up sink conditions is 1% sodium lauryl sulfate. The tablet formulations are preferably released from a sinker as specified in the Japanese Pharmacopoeia.

[2] = cited from earlier work

Release [%] at 2 h ([1]; from nifedipine/telmisartan osmotic two-chamber tablet, heading prints Exemplary Formulation 2.1, time 2 h): 5% | Release [%] at 5 h ([1]; from nifedipine/telmisartan osmotic two-chamber tablet, heading prints Exemplary Formulation 2.1, time 5 h): 22% | Release [%] at 10 h ([1]; from nifedipine/telmisartan osmotic two-chamber tablet, heading prints Exemplary Formulation 2.1, time 10 h): 51% | Release [%] at 15 h ([1]; from nifedipine/telmisartan osmotic two-chamber tablet, heading prints Exemplary Formulation 2.1, time 15 h): 80% | Release [%] at 24 h ([1]; from nifedipine/telmisartan osmotic two-chamber tablet, heading prints Exemplary Formulation 2.1, time 24 h): 90%
SMILES: CCCc1nc2c(C)cc(-c3nc4ccccc4n3C)cc2n1Cc1ccc(-c2ccccc2C(=O)O)cc1 [Telmisartan]

SMILES: COC(=O)C1=C(C)NC(C)=C(C(=O)OCC(C)C)C1c1ccccc1[N+](=O)[O-] (stereo not shown) [nisoldipine]
water solubility [2]: about 2 mg/l

Release [%] at 2 h ([1]; from tablet Exemplary formulation 2.1 (30 mg nifedipine, osmotic two-chamber system), time 2 h): 2% | Release [%] at 4 h ([1]; from tablet Exemplary formulation 2.1 (30 mg nifedipine, osmotic two-chamber system), time 4 h): 19% | Release [%] at 8 h ([1]; from tablet Exemplary formulation 2.1 (30 mg nifedipine, osmotic two-chamber system), time 8 h): 48% | Release [%] at 12 h ([1]; from tablet Exemplary formulation 2.1 (30 mg nifedipine, osmotic two-chamber system), time 12 h): 77% | Release [%] at 24 h ([1]; from tablet Exemplary formulation 2.1 (30 mg nifedipine, osmotic two-chamber system), time 24 h): 96%
SMILES: CCCCc1nc(Cl)c(CO)n1Cc1ccc(-c2ccccc2-c2nn[nH]n2)cc1 [Losartan-K, losartan potassium]
water solubility, classified in words [2]: freely soluble

SMILES: CCOc1nc2cccc(C(=O)OC(C)OC(=O)OC3CCCCC3)c2n1Cc1ccc(-c2ccccc2-c2nnn[nH]2)cc1 (stereo not shown) [candesartan cilexetil]
water solubility, classified in words [2]: virtually insoluble in water
